Data: US20040214760A1, “Inhibition pf protein-phosphatases for the treatment of heart failure” (priority 2001, published 2004)

Tests used:
PP1 = conditions: heat and acid stable proteins of skeletal muscle extract (Cohen et al., 1998); cited from earlier work
[1] = target: 32P-labelled phosphorylase a

32P released from 32P-labelled phosphorylase a [1] | Substance | inhibition of phosphatase (PP1) activity, dependence on phosphorylation state (PP1)
 | inhibitor-1 | inhibits phosphatase activity only when it has been phosphorylated by cAMP-dependent protein kinase
30% | purified catalytic subunit of PP1 from rabbit skeletal muscle (enzyme) | 
